From paper PMC6149971, “In Vivo and In Vitro Activities and ADME-Tox Profile of a Quinolizidine-Modified 4-Aminoquinoline: A Potent Anti-P. falciparum and Anti-P. vivax Blood-Stage Antimalarial” (Molecules : A Journal of Synthetic Chemistry and Natural …, 2017)
Values joined by “and” are separate entries in the source; they are usually repeats but may differ in a detail not shown here. Equal entries are not always repeated.

Key:
[1] = Metabolites in mouse plasma after oral treatment; assay type: in vivo; parameters: key: +: Metabolic Products Detected In Vitro and In Vivo; ND: Not detectable; conditions: after 50 mg/kg (−)-AM1 oral gavage, at 120 min
Method: A representative chromatogram in the mouse and the MS spectra are shown in Figure S1 (Supplementary Materials), while the proposed structures of metabolites in all the species, together with the retention times, are shown in Table 3. In the same table, the metabolites found in mouse plasma after 50 mg/kg oral treatment are included. The retention times and [M + H]^+ of the metabolites are the same for all three species.
The parent [M + H]^+ = 330 and the metabolites [M + H]^+ = 346 and [M + H]^+ = 344 were also detected in the mouse plasma samples collected after oral treatment of CD1 mice with 50 mg/kg of (−)-AM1 (Figure S4).
Samples from the metabolic stability and metabolism studies were analyzed under the following conditions: UPLC interfaced with a Premiere XE triple Quadrupole Waters for stability studies, and Bruker Daltonics Ion Trap HCT Ultra for metabolic studies. A gradient from 2% to 100% (Water, MeOH, 5 mM Ammonium Acetate) over 2 min (stability) or 12 min (metabolism) in a C18 BEH (dimensions 1 by 50 mm for stability and 2.1 by 100 mm for metabolism, 1.7 µm column, 45 °C temperature, flow rate 0.5 mL/min) was used. […]

[2] = test system: P. berghei ANKA transmission stages in Anopheles stephensi; assay: Transmission-blocking test, P. berghei/A. stephensi model; assay type: in vivo; conditions: 50 mg/kg oral
Method: (§1) (−)-AM1 was also tested in transmission-blocking and prophylactic studies using the P. berghei/A. stephensi model as described, with a few modifications.
For the transmission-blocking test, four BALB/c female mice (18–20 g) were infected i.p. with 10^7 P. berghei-infected red blood cells. Four days later, once confirmed for gametocyte carriage, two mice were treated with 50 mg/kg (−)-AM1, through the oral administration of 500 µL of a methylcellulose suspension, obtained by dissolving a 20 mg/mL ethanol stock solution in 0.5% methylcellulose to a final 9% ethanol concentration. Two mice received the vehicle only as controls. One hour after the treatment, mice were anesthetized and exposed to the bites of 100 sugar-starved female mosquitoes, at 20 °C. Ten days after the blood meal, samples of mosquito midguts from each treatment (n = 40) were dissected and P. berghei oocysts were manually counted using light microscopy at 400× magnification. Oocyst numbers were log-transformed and the geometric means were compared using the Student’s t-test.

CYP2C9 = CYP2C9 (Homo sapiens, UniProt P11712); assay: in vitro
[3] = test system: P. falciparum FCR3 (CQ-R); assay: In vitro chemosensitivity assay (pLDH), FCR3 strain; assay type: cell-based; conditions: Plasmodium falciparum, FCR3; 72 h incubation, pLDH method, mean of 3 experiments; read-out: P. falciparum IC50, FCR3
[4] = Pharmacokinetics in CD-1 mice after oral administration; conditions: mouse, in vivo
P. falciparum W-2 (CQ-R) = test system: P. falciparum W-2 (CQ-R); parameters: method as in PMID 22901673; conditions: 72 h incubation, pLDH method, mean of 3 experiments; data already published; cited from earlier work
P. berghei = assay: Prophylactic test, P. berghei/A. stephensi model; assay type: in vivo; conditions: 50 mg/kg per os for 4 days, infection by mosquito bites, days 5–9 post-infection
Method: as §1
For the prophylactic test, the experimental drugs were administered at 50 mg/kg per os for 4 consecutive days; 90 min after the last administration, mice were infected by 6–10 infective mosquito bites. Thick and thin Giemsa-stained smears were prepared and examined on days 5–10 post-infection to assess parasite density per μL of blood.

P. falciparum D10 (CQ-S) = test system: P. falciparum D10 (CQ-S); parameters: method as in PMID 22901673; conditions: 72 h incubation, pLDH method, mean of 3 experiments; data already published; cited from earlier work
[5] = Pharmacokinetics in CD-1 mice after oral administration; assay type: in vivo, mouse; conditions: male, CD-1, mouse, in vivo, po, 10 mg/kg
Method: Samples from the pharmacokinetic studies were analyzed under the following conditions: UPLC interfaced with a Premiere XE triple Quadrupole, Waters. A gradient from 2 to 100% (Water, MeOH, 5 mM Ammonium Acetate) over 1.3 min was used in Acquity HSS T3 (dimensions 2.1 by 50 mm, 1.8 µm column, 40 °C temperature, flow rate 0.5 mL/min). Detection was performed in MRM (ESI positive, Q1/Q3 330.16/152.00, Cone Voltage 45 V; Extractor 5 V; Capillary 3.4 kV). The limit of detection was 1 ng/mL. Pharmacokinetic parameters were determined by Non-Compartmental Analysis, using the linear trapezoidal rule and uniform weight.
Pharmacokinetic data were collected in mice by testing the racemate and the enantiomers at the same single dose, and vehicle-utilized for in vivo studies (see composition in paragraph 4.4). Briefly, male CD-1 mice (Charles River Laboratories) weighing 18–22 g received single dose (10 mg/kg) oral administrations of the AM1 racemate and single enantiomers, each dissolved in SSV. For each experiment, twenty-four mice/dose and three mice/time-point were used. Blood samples were collected at eight selected time-points (15, 30 and 60 min; 2, 4, 6, 8 and 24 h) under ethyl ether anaesthesia. The heparinized tubes containing blood samples were immediately placed on ice and centrifuged, and the supernatant collected and frozen at −80 °C prior to analysis. Pharmacokinetic plasma samples (spiked with internal standard) were filtered (Sirocco filter plate, Waters) under vacuum, and 5 µL analysed by LC-MS/MS.

Sequence of CYP2C9 (P11712 whole entry): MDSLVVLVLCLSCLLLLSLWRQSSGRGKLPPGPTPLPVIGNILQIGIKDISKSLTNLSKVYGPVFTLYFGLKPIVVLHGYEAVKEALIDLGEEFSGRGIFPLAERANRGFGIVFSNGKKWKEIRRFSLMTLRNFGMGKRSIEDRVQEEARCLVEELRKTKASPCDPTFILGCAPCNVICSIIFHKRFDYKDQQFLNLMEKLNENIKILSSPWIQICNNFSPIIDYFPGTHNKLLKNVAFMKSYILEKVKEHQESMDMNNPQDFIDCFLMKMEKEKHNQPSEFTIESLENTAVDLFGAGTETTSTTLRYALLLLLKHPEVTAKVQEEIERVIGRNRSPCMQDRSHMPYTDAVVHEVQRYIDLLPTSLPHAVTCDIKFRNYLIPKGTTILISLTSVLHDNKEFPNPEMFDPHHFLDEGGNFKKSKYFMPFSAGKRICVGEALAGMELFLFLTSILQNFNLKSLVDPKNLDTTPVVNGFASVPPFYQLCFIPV

Q: For `Clc1ccc2c(NC[C@@H]3CCCN4CCCC[C@H]34)ccnc2c1` [(−)-AM1, 7-chloro-N-(((1S,9aR)-octahydro-1H-quinolizin-1-yl)methyl)quinolin-4-amine], which “Metabolic products detected, in vivo plasma levels, mouse” value [1] is on record?
A: Its value is “+”.

Q: What about the “infection intensity, average number of oocysts per midgut” value ([2]; BALB/c mice, read after 10 days, control 39.17, p = 0.24) of the same compound?
A: Its value is 54.11 (CI95 39.77–68.45) oocysts.

Q: What about the transmission-blocking activity ([2]; P. berghei/A. stephensi model) of the same compound?
A: Its transmission-blocking activity is “does not show transmission-blocking or prophylactic activity”.

Q: What about the inhibition at 3 µM (CYP2C9) of the same compound?
A: The inhibition at 3 µM was under 5%.

Q: What about the IC50 [3] of the same compound?
A: The IC50 was 23.3 nM.

Q: And the “dose proportionality of oral pharmacokinetics” value [4]?
A: The value was “dose proportionality was displayed”.

Q: What about the IC50 (P. falciparum W-2 (CQ-R)) of the same compound?
A: Its IC50 is 53.7 nM.

Q: And the “parasitaemia versus control mice, prophylactic activity” value (P. berghei)?
A: Its value is “no significant differences in parasitaemia”.

Q: And the IC50 (P. falciparum D10 (CQ-S))?
A: The IC50 was 24 nM.

Q: What about the AUC(0-t) [5] of the same compound?
A: The AUC(0-t) was 0.313 µM·h and 103 ng·h/mL.

Q: What about the Cmax [5] of the same compound?
A: Its Cmax is 84 nM and 27.6 ng/mL.

Q: And the MRT last [5]?
A: The MRT last was 3.33 h.

Q: What about the Tmax [5] of the same compound?
A: The Tmax was 15 min.
